Source: patent publication US12516039B2, “N-linked isoquinoline amides as LRRK2 inhibitors, pharmaceutical compositions, and uses thereof” (Merck Sharp & Dohme LLC, priority 2020, dated 2026)

target: T1, GST-tagged truncated human mutant G2019S LRRK2 (Homo sapiens, UniProt Q5S007, G2019S); assay: LRRK2 G2019S Km ATP LanthaScreen assay; type: biochemical; conditions: 134 μM ATP (Km ATP), LRRKtide substrate, mean of several tests
T1 construct: GST-tagged truncated human mutant G2019S LRRK2; purchased Life Technologies Corporation (Carlsbad, CA)
T1 sequence (Q5S007 970-2527 G2019S limits assumed): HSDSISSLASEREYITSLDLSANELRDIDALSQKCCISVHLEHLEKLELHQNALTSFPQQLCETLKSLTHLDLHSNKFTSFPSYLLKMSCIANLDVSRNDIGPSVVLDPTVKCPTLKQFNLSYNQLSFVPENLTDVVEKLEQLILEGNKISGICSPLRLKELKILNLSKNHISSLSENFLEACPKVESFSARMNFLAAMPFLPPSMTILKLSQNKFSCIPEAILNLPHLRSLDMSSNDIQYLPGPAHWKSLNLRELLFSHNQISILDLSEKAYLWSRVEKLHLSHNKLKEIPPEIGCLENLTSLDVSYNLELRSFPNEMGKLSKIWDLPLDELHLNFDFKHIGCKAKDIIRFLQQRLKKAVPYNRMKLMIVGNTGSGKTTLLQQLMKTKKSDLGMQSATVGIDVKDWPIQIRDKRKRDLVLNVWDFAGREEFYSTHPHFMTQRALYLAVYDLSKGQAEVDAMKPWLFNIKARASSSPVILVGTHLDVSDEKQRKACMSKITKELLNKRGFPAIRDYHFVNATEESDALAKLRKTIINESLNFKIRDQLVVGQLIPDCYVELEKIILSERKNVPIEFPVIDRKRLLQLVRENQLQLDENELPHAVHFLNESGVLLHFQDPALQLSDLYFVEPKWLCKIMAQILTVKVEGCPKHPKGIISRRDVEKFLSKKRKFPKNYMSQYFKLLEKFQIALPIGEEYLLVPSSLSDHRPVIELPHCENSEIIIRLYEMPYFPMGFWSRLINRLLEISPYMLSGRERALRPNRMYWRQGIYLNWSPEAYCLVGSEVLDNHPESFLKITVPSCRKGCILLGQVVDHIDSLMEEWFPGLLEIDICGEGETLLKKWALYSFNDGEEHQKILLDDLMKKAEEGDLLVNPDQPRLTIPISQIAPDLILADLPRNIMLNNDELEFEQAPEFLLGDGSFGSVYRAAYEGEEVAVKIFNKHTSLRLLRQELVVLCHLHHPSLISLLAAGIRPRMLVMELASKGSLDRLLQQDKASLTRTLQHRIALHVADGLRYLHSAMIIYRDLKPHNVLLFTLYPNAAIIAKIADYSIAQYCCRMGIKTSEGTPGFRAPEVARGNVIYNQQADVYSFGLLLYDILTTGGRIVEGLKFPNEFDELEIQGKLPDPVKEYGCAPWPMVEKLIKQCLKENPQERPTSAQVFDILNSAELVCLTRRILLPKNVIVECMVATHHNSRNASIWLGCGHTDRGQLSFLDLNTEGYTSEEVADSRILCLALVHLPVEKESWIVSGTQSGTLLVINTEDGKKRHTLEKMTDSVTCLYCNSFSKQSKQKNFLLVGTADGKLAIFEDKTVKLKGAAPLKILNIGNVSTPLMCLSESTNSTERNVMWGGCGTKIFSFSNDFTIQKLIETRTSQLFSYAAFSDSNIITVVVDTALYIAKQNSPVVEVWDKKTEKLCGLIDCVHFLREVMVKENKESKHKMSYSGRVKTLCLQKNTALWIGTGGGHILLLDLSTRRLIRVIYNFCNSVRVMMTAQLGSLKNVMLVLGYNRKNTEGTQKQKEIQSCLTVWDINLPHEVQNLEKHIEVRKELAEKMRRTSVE
Method: Unless otherwise noted, all reactions are magnetically stirred. Unless otherwise noted, when diethyl ether is used in the experiments described below, it is Fisher ACS certified material and is stabilized with BHT. Unless otherwise noted, “concentrated” and/or “solvent removed under reduced pressure” means evaporating the solvent from a solution or mixture using a rotary evaporator or vacuum pump. Unless otherwise noted, flash chromatography is carried out on a Teledyne Isco (Lincoln, NE), Analogix (Burlington, WI), or Biotage (Stockholm, SWE) automated chromatography system using a commercially available cartridge as the column. Columns may be purchased from Teledyne Isco, Analogix, Biotage, Varian (Palo Alto, CA), or Supelco (Bellefonte, PA) and are usually filled with silica gel as the stationary phase. Reverse phase prep-HPLC conditions, where used, can be found at the end of each experimental section. Aqueous solutions were concentrated on a Genevac (Ipswich, ENG) or by freeze-drying/lyophilization. Unless otherwise noted, all LRRK2 pIC50 data presented in tables refers to the LRRK2 G2019S Km ATP LanthaScreen™ assay (Life Technologies Corp., Carlsbad, CA) that is described in the Biological Assay section.
Biological Assay: LRRK2 Km ATP LanthaScreen™ Assay
The LRRK2 kinase activity reported herein as IC50 values was determined with LanthaScreen™ technology from Life Technologies Corporation (Carlsbad, CA) using GST-tagged truncated human mutant G2019S LRRK2 in the presence of the fluorescein-labeled peptide substrate LRRKtide, also from Life Technologies. The data presented for the Km ATP LanthaScreen™ Assay represents mean IC50 values based on several test results and may have reasonable deviations depending on the specific conditions and reagents used. Assays were performed in the presence of 134 μM ATP (Km ATP). Upon completion, the assay was stopped and phosphorylated substrate detected with a terbium (Tb)-labeled anti-pERM antibody (cat. no. PV4898). The compound dose response was prepared by diluting a 10 mM stock of compound to a maximum concentration of 9.99 μM in 100% dimethylsulfoxide followed by custom fold serial dilution in dimethylsulfoxide nine times. Twenty nanoliters of each dilution was spotted via a Labcyte Echo onto a 384-well black-sided plate (Corning 3575) followed by 15 μl of a 1.25 nM enzyme solution in 1× assay buffer (50 mM Tris pH 8.5, 10 mM MgCl2, 0.01% Brij-35, 1 mM EGTA, 2 mM dithiothreitol, 0.05 mM sodium orthovanadate). Following a 15-minute incubation at room temperature, the kinase reaction was started with the addition of 5 μl of 400 nM fluorescein-labeled LRRKtide peptide substrate and 134 μM ATP solution in 1× assay buffer. The reaction was allowed to progress at ambient temperature for 90 minutes. The reaction was then stopped by the addition of 20 μl of TR-FRET Dilution Buffer (Life Technologies, Carlsbad, CA) containing 2 nM Tb-labeled anti-phospho LRRKtide antibody and 10 mM EDTA (Life Technologies, Carlsbad, CA). After an incubation of 1 hour at room temperature, the plate was read on an EnVision multimode plate reader (Perkin Elmer, Waltham, MA) with an excitation wavelength of 337 nm (Laser) and a reading emission at both 520 and 495 nm. Compound IC50s were interpolated from nonlinear regression best fits of the log of the final compound concentration, plotted as a function of the 520/495-nm emission ratio using Activity base. Abase uses a 4 parameter (4P) logistic fit based on the Levenberg-Marquardt algorithm.

In order of falling “LRRK2 pIC50” value:
1. Cc1cc2cnc(NC(=O)C3CC3c3ccccn3)cc2cc1N1CCN(C2(C)CCOC2)CC1 (centres unmarked) [Ex-9.21]  10.09
2. (3R or 3S)-N-[6-[4-((3R,4R or 3S,4S)-4-fluoro-3-methyl-tetrahydrofuran-3-yl)piperazin-1-yl]-7-methyl-3-isoquinolyl]-5,5-dimethyl-tetrahydrofuran-3-carboxamide [Ex-10.93]  9.90
3. Cc1cc2cnc(NC(=O)C3CC34CCOCC4)cc2cc1N1CCN(C2(C)COCC2O)[C@@H](C)C1 (some centres unmarked) [Ex-6.10]  9.26
4. CC1(N2CCN(c3cc4cc(NC(=O)C5CCOCC5)ncc4cc3Cl)CC2)COCC1O (centres unmarked) [Ex-9.2]  8.74
5. CC1(N2CCN(c3cc4cc(NC(=O)C5CCCO5)ncc4cc3Cl)CC2)COCC1O (centres unmarked) [Ex-9.4]  8.40
6. CC(C)OC1CCC(C(=O)Nc2cc3cc(N4CCN(C5(C)COCC5O)CC4)c(Cl)cc3cn2)OC1 (centres unmarked) [Ex-9.5]  8.28
7. O=C(Nc1cc2cc(N3CCC(N4CC(F)(F)C4)CC3)c(Cl)cc2cn1)C1CC12CCOCC2 (centres unmarked) [Ex-4.7]  7.93

same assay, conditions: 134 μM ATP (Km ATP), LRRKtide substrate, mean of several tests, read-out: LRRK2 pIC50 (converted)

In order of falling IC50:
1. CC1(N2CCN(c3cc4cc(NC(=O)C5CC56CCCOC6)ncc4cc3Cl)CC2)COCC1O (single isomer, unassigned) [Ex-1.17, (1R,3S, or 1R,3R, or 1S,3S, or 1S,3R)-N-(7-chloro-6-(4-((3R,4R or 3S,4S)-4-hydroxy-3-methyltetrahydrofuran-3-yl)piperazin-1-yl)isoquinolin-3-yl)-5-oxaspiro[2.5]octane-1-carboxamide]  776 nM
2. CC1(C#N)CCN(c2cc3cc(NC(=O)C4CC4c4cncnc4)ncc3cc2Cl)CC1 (single isomer, unassigned) [Ex-5.16]  427 nM
3. CC1(N2CCN(c3cc4cc(NC(=O)C5CC56CCCOC6)ncc4cc3Cl)CC2)COCC1O (single isomer, unassigned) [Ex-1.15, (1R,3S, or 1R,3R, or 1S,3S, or 1S,3R)-N-(7-chloro-6-(4-((3R,4R or 3S,4S)-4-hydroxy-3-methyltetrahydrofuran-3-yl)piperazin-1-yl)isoquinolin-3-yl)-5-oxaspiro[2.5]octane-1-carboxamide]  46.8 nM
4. O=C(Nc1cc2cc(N3C(=O)C4CCC3C4)ccc2cn1)C1CC1 (single isomer, unassigned) [Ex-5.2]  25.7 nM
5. O=C(Nc1cc2cc(N3CCN(C4COCC4O)CC3)c(Cl)cc2cn1)C1CC12CCOCC2 (single isomer, unassigned) [Ex-2.8, (R or S)-N-(7-chloro-6-(4-((3R,4R or 3S,4S)-4-hydroxytetrahydrofuran-3-yl)piperazin-1-yl)isoquinolin-3-yl)-6-oxaspiro[2.5]octane-1-carboxamide]  24 nM
6. CC12CC(C(=O)Nc3cc4cc(N5CCN(C6(C)COCC6O)CC5)c(Cl)cc4cn3)(CO1)C2 (single isomer, unassigned) [Ex-2.18, N-(7-chloro-6-(4-((3R,4R or 3S,4S)-4-hydroxy-3-methyltetrahydrofuran-3-yl)piperazin-1-yl)isoquinolin-3-yl)-1-methyl-2-oxabicyclo[2.1.1]hexane-4-carboxamide]  15.5 nM
7. CC1(N2CCN(c3cc4cc(NC(=O)C5CC5)ncc4cc3F)CC2)COCC1O (single isomer, unassigned) [Ex-1.5, (3R,4R or 3S,4S)-N-(7-fluoro-6-(4-(4-hydroxy-3-methyltetrahydrofuran-3-yl)piperazin-1-yl)isoquinolin-3-yl)cyclopropanecarboxamide]  7.08 nM
8. CC1(N2CCN(c3cc4cc(NC(=O)C5CC56CCC6)ncc4cc3Cl)CC2)COCC1O (single isomer, unassigned) [Ex-1.7, (1R or 1S)-N-(7-chloro-6-(4-((3R,4R or 3S,4S)-4-hydroxy-3-methyltetrahydrofuran-3-yl)piperazin-1-yl)isoquinolin-3-yl)spiro[2.3]hexane-1-carboxamide]  6.61 nM
9. Cn1ncc(C2CC2C(=O)Nc2cc3cc(N4CCN(C5(C)CCOC5)CC4)c(Cl)cc3cn2)c1C(F)(F)F (single isomer, unassigned) [Ex-10.25, (1R,2R or 1S,2S)-N-[7-chloro-6-[4-((R or S)-3-methyltetrahydrofuran-3-yl)piperazin-4-ium-1-yl]-3-isoquinolyl]-2-[1-methyl-5-(trifluoromethyl)pyrazol-4-yl]cyclopropanecarboxamide]  3.72 nM
10. COc1cc2cnc(NC(=O)C3CC34CCOCC4)cc2cc1N1CCN(C2(C)COCC2O)CC1 (single isomer, unassigned) [Ex-13]  3.39 nM
11. CC1(C)C(C(=O)Nc2cc3cc(N4CCN(C5(C)COCC5O)CC4)c(Cl)cc3cn2)C1C1CCCCO1 (single isomer, unassigned) [Ex-10.92, (1R,2R,3R, 1R,2S,3R, or 1S,2R,3S, or 1S,2S,3S)-N-[7-chloro-6-[4-((3R,4R or 3S,4S)-4-hydroxy-3-methyl-tetrahydrofuran-3-yl)piperazin-1-yl]-3-isoquinolyl]-2,2-dimethyl-3-tetrahydropyran-2-yl-cyclopropanecarboxamide]  1.95 nM
12. Cc1cc2cnc(NC(=O)C3CC3c3ccccn3)cc2cc1N1CCN(C2(C)CCOC2)CC1 (single isomer, unassigned) [Ex-9.16]  1.12 nM
13. CC1(N2CCN(c3cc4cc(NC(=O)C5CCC(F)(F)CO5)ncc4cc3Cl)CC2)COCC1O (single isomer, unassigned) [Ex-10.1, (2R or 2S)-N-(7-chloro-6-((3R, 4R or 3S, 4S)-4-(4-hydroxy-3-methyltetrahydrofuran-3-yl)piperazin-1-yl)isoquinolin-3-yl)-5,5-difluorotetrahydro-2H-pyran-2-carboxamide]  0.933 nM
14. CC1(N2CCN(c3cc4cc(NC(=O)C5CCC(F)(F)CO5)ncc4cc3Cl)CC2)COCC1O (single isomer, unassigned) [Ex-10.2, (2R or 2S)-N-(7-chloro-6-((3R, 4R or 3S, 4S)-4-(4-hydroxy-3-methyltetrahydrofuran-3-yl)piperazin-1-yl)isoquinolin-3-yl)-5,5-difluorotetrahydro-2H-pyran-2-carboxamide]  0.676 nM
15. CC1(N2CCN(c3cc4cc(NC(=O)C5CC56CCOCC6)ncc4cc3Cl)CC2)COCC1O (single isomer, unassigned) [Ex-2.1, (R or S)-N-(7-chloro-6-(4-((3R,4R or 3S,4S)-4-hydroxy-3-methyltetrahydrofuran-3-yl)piperazin-1-yl)isoquinolin-3-yl)-6-oxaspiro[2.5]octane-1-carboxamide]  0.389 nM
16. CC1(N2CCN(c3cc4cc(NC(=O)C5CC56CC6)ncc4cc3Cl)CC2)COCC1F (single isomer, unassigned) [Ex-10.80, (R or S)-N-[7-chloro-6-[4-((3R,4R or 3S,4S)-4-fluoro-3-methyl-tetrahydrofuran-3-yl)piperazin-1-yl]-3-isoquinolyl]spiro[2.2]pentane-2-carboxamide]  0.123 nM
17. CCC1C(C(=O)Nc2cc3cc(N4CCN(C5(C)CCOC5)CC4)c(Cl)cc3cn2)C1c1cnn(C)c1 (single isomer, unassigned) [Ex-9.10]  0.0813 nM
18. CC1(C2CCOC2)CC1C(=O)Nc1cc2cc(N3CCN(C4(C)COCC4O)CC3)c(Cl)cc2cn1 (single isomer, unassigned) [Ex-10.81, (1R,2R or 1S,2S, or 1R,2S, or 1S,2R)-N-[7-chloro-6-[4-((3R,4R or 3S,4S)-4-hydroxy-3-methyl-tetrahydrofuran-3-yl)piperazin-1-yl]-3-isoquinolyl]-2-methyl-2-tetrahydrofuran-3-yl-cyclopropanecarboxamide]  0.0813 nM
19. CC1(N2CCN(c3cc4cc(NC(=O)C5CCC5C#N)ncc4cc3Cl)CC2)COCC1F (single isomer, unassigned) [Ex-10.68, (1R,2R or 1S,2S)-N-[7-chloro-6-[4-((3R,4R or 3S,4S)-4-fluoro-3-methyl-tetrahydrofuran-3-yl)piperazin-1-yl]-3-isoquinolyl]-2-cyano-cyclobutanecarboxamide]  0.0813 nM
